The results in this text go back to paper PMC5537355, “Structures and transport dynamics of a Campylobacter jejuni multidrug efflux pump” (Nature Communications, 2017).

One assay addresses T1, CmeB (Campylobacter jejuni, UniProt Q8RTE4).
T1 construct: full-length, N-terminal 6xHis (pET15b), E. coli BL21(DE3)deltaacrB host; homotrimer
Description: isothermal titration calorimetry. The format is binding. The following applies: 20 mM Na-HEPES pH 7.5, 0.03% DDM, room temperature; 20 μM monomer in cell; no cyclooctatetraene.

Assay [1] concerns the target Campylobacter jejuni CmeB multidrug efflux pump (Campylobacter jejuni) (UniProt Q8RTE4). Put plainly: crystal structure.

As to `C[C@H](CCC(=O)NCCS(=O)(=O)O)[C@H]1CC[C@H]2[C@@H]3CC[C@@H]4C[C@H](O)CC[C@]4(C)[C@H]3C[C@H](O)[C@]12C` [taurodeoxycholate], the KD entry at CmeB is given as “examine the binding of taurodeoxycholate to the purified CmeB transporter”. Molecule “Campylobacter jejuni CmeB multidrug efflux pump (from UniProt Q8RTE4) (natural protein)” registered a stoichiometry N in assay [1] of 3.
